# Measured values published in publication PMC6389993, “Quercetin and its metabolite isorhamnetin promote glucose uptake through different signalling pathways in myotubes” (Scientific Reports, 2019).
# Experiments:
# LKB1 = experiment: Phosphorylation of LKB1 in L6 myotubes (western blot); type: cell-based, rat; details: 0.1–10 nM, 15 min
# Description: (§1) For in vitro cell culture experiments, after serum starvation for 18 h, myotubes were treated with various concentrations of quercetin or isorhamnetin (0.1–10 nM) for 15 min; DMSO (final 0.1%) was used as a vehicle control. As positive controls, 100 nM insulin, 1 mM AICAR, 10 nM leptin, or 100 ng/mL IL-15 were used for insulin, AMPK, JAK2/STAT, or JAK3/STAT signalling pathways, respectively. Cells were treated with insulin or AICAR for 15 min, leptin for 60 min, or IL-15 for 24 h. Whole protein and plasma membrane fractions were prepared from myotubes, as previously described. For in vivo experiment, plasma membrane fraction and tissue lysate of soleus muscle were prepared.
# (§2) Translocation of GLUT4 to the plasma membrane, as well as expression and phosphorylation levels of GLUT4-related regulators were estimated by western blot analysis. Briefly, equal amounts of proteins were separated by sodium dodecyl sulfate-polyacrylamide gel electrophoresis (SDS-PAGE). […] Specific immune complexes were developed using ImmunoStar® LD and detected with an ATTO Light-Capture II Western Blotting Detection System. Individual band density was calculated by ImageJ and normalized to the control.
# JAK2 = experiment: Phosphorylation of JAK2 in L6 myotubes (western blot); type: cell-based, rat; details: 15 min; for phosphorylation of JAK2: higher concentrations (1 μM and 10 μM)
# Description: as §1
# as §2, with “(SDS-PAGE). Separated proteins were transferred onto a polyvinylidene fluoride membrane and nonspecific binding sites were blocked using either Blocking One (to detect unphosphorylated proteins) or Blocking One-P (to detect phosphoproteins).” for “(SDS-PAGE).”, “control. […]” for “control.”
# 59 complexes were developed using ImmunoStar® LD and detected with an ATTO Light-Capture
# 60 Ⅱ Western Blotting Detection System. Individual band density was calculated by ImageJ and […]
# JAK3 = experiment: Phosphorylation of JAK3 in L6 myotubes (western blot); type: cell-based, rat; details: physiological concentration range (0.1–10 nM), 15 min
# Description: as §1, §2
# STAT1 = experiment: Phosphorylation of STAT1 in L6 myotubes (western blot); type: cell-based, rat; details: 0.1–10 nM, 15 min
# Description: as §1, §2
# STAT3 = experiment: Phosphorylation of STAT3 in L6 myotubes (western blot); type: cell-based, rat; details: 10 nM, 15 min
# Description: as §1, §2
# STAT5 = experiment: Phosphorylation of STAT5 in L6 myotubes (western blot); type: cell-based, rat; details: 1 nM, 15 min
# Description: as §1, §2
# GLUT4 = GLUT4 translocation in L6 myotubes after siRNA knockdown of AMPKα, JAK2 or JAK3; type: cell-based, rat; details: for compound-induced GLUT4 translocation after siRNA for AMPK: siAMPKα 50 nM 48 h, 1 mM AICAR; for compound-induced GLUT4 translocation after siRNA for AMPK / compound-induced GLUT4 translocation after siRNA for JAK2: 1 nM quercetin or isorhamnetin; for compound-induced GLUT4 translocation after siRNA for JAK2: siJAK2 50 nM 48 h, 10 nM leptin
# Description: as §1
# Translocation of GLUT4 to the plasma membrane, as well as expression and phosphorylation levels of GLUT4-related regulators were estimated by western blot analysis. Briefly, equal amounts of proteins were separated by sodium dodecyl sulfate-polyacrylamide gel electrophoresis (SDS-PAGE). Separated proteins were transferred onto a polyvinylidene fluoride membrane and nonspecific binding sites were blocked using either Blocking One (to detect unphosphorylated proteins) or Blocking One-P (to detect phosphoproteins). The membrane was incubated overnight with an appropriate primary antibody for GLUT4 (1:5000), IR (1:10000), p-IRS1 (1:5000), IRS1 (1:5000), p-PI3K (1:5000), PI3K (1:10000), p-Akt (1:5000), Akt (1:10000), p-AMPKα (1:5000), AMPKα (1:10000), p-ACC (1:5000), ACC (1:10000), p-LKB1 (1:5000), LKB1 (1:10000), p-JAK2 (1:5000), JAK2 (1:5000), p-JAK3 (1:5000), JAK3 (1:10000), p-STAT1 (1:5000), STAT1 (1:10000), p-STAT3 (1:5000), STAT3 (1:10000), p-STAT5 (1:5000), STAT5 (1:10000), or β-actin (1:20000), and subsequently treated with the corresponding horseradish peroxidase-conjugated secondary antibody (1:50000) for 1 h. Specific immune complexes were developed using ImmunoStar® LD and detected with an ATTO Light-Capture II Western Blotting Detection System. Individual band density was calculated by ImageJ and normalized to the control.
# Mature myotubes were cultured in antibiotic-free medium and transfected with siRNA at a final concentration of 50 nM using Lipofectamine RNAiMAX transfection reagent according to the manufacturer’s instructions. In brief, mature myotubes were transfected with siRNA in Opti-MEM for 48 h. Subsequently, the medium was changed to fresh Opti-MEM and cells were treated with the indicated concentrations of quercetin or isorhamnetin.
# IRS1 = experiment: Phosphorylation of IRS1 in L6 myotubes (western blot); type: cell-based, rat; details: 0.1–10 nM, 15 min
# Description: as §1, §2
# ACC = experiment: Phosphorylation of ACC in L6 myotubes (western blot); type: cell-based, rat; details: 0.1 nM or 1 nM, 15 min
# Description: as §1, §2
# PKCζ/λ = experiment: Phosphorylation of PKCζ/λ in L6 myotubes; type: cell-based, rat; details: 10 nM, data not shown
# [1] = cited from earlier work
Compound,LKB1 phosphorylation (LKB1),phosphorylation of JAK2 (JAK2),JAK2 phosphorylation (JAK2; physiological concentration range (0.1–10 nM)),JAK3 phosphorylation (JAK3),phosphorylation of STAT1 (STAT1),phosphorylation of STAT3 (STAT3),phosphorylation of STAT5 (STAT5),compound-induced GLUT4 translocation after siRNA for AMPK (GLUT4),compound-induced GLUT4 translocation after siRNA for JAK2 (GLUT4),"compound-induced GLUT4 translocation after siRNA for JAK3 (GLUT4; siJAK3 50 nM 48 h, 1 nM isorhamnetin, not significant)",phosphorylation of IRS1 (IRS1),phosphorylation of ACC (ACC),phosphorylation of PKCζ/λ (PKCζ/λ),"basal concentrations in the blood ([1]; humans, after consumption of 80–100 mg of quercetin equivalent)",absorption rate ([1]; in humans)
"COc1cc(-c2oc3cc(O)cc(O)c3c(=O)c2O)ccc1O [isorhamnetin, 3′-O-methyl quercetin]",neither quercetin nor isorhamnetin increased LKB1 phosphorylation,induced phosphorylation of JAK2,effectively promoted,effectively promoted,but not STAT1,increased,increased,failed to suppress,abolished,slightly decreased,,,,,
"O=c1c(O)c(-c2ccc(O)c(O)c2)oc2cc(O)cc(O)c12 [quercetin, 3,3′,4′,5,7-pentahydroxy flavone]",neither quercetin nor isorhamnetin increased LKB1 phosphorylation,induced phosphorylation of JAK2,,,,,,almost completely abolished,without affecting,,dose-dependently promoted,phosphorylation was increased,phosphorylated,300 to 750 nM,9–20%
